Measured values from patent US20020155519A1 (priority 1997, published 2002).
Entries after “also recorded” stand apart in the source; their conditions may differ.

system: human blood bacterium (HBB); type: cell-based; settings: not given
Description: Normally 1 ml of serum was added to 9 ml of medium. Larger flasks with a proportionately larger amount of serum and medium are used to produce bacteria in quantity. Modulators might be added to some flasks in 10× or higher concentration (corresponding to addition of 1 ml or less). When examining the effect of modulators, control flasks were prepared similarly without the addition of the modulator. Levels were observed microscopically (inverted phase microscope, observing the number of organisms per field crudely or by actual count) after incubation, typically at several points in time.
When multiple comparisons were done at once, they were done in 12 well or 24 well cell culture plates, most often the latter. With the latter, typically 1 ml of medium inoculated with serum is added to each well, with modulators added at 10× or higher concentration (0.1 ml or less). When comparisons are done in well plates, control wells without any additions are included. Levels were observed microscopically (inverted phase microscope) after incubation, typically at several points in time. The well plate cultures were also used for antibiotic sensitivity testing.
These procedures are those known in the art and include uses of antibodies and DNA probes, Western and Southern blots, PCR and the diagnostic kits therefor. First, organisms can be quantified by culture. […] If a means is found to immobilize the bacteria to grow isolated colonies, counts will be more accurate. Quantification is used to follow the progress of treatment and to correlate HBB levels with specific disease syndromes. Quantification is used also for antibiotic sensitivity measurements, comparing the level of growth with antibiotic treatment to the level of growth without treatment. Such antibiotic sensitivity measurements establish the basis for the clinical choice of antibiotic drugs.

Compound	antibiotic sensitivity of HBB strains/isolates in culture	observed antibiotic and antifungal sensitivities (outcome, number of isolates)
CC1(C)S[C@@H]2[C@H](NC(=O)[C@H](N)c3ccc(O)cc3)C(=O)N2[C@H]1C(=O)O [amoxicillin]	less sensitivity	–
CC[C@H]1OC(=O)[C@H](C)[C@@H](O[C@H]2C[C@@](C)(OC)[C@@H](O)[C@H](C)O2)[C@H](C)[C@@H](O[C@@H]2O[C@H](C)C[C@H](N(C)C)[C@H]2O)[C@](C)(O)C[C@@H](C)CN(C)[C@H](C)[C@@H](O)[C@]1(C)O [azothromycin]	some strains show sensitivity; also recorded: often stimulate growth	no effect (6 isolates); also recorded: sensitive (7 isolates)
CC1=C(C(=O)O)N2C(=O)[C@@H](NC(=O)[C@H](N)c3ccc(O)cc3)[C@H]2SC1 [cefadroxil]	–	no effect (1 isolate)
CC1=C(C(=O)O)N2C(=O)[C@@H](NC(=O)[C@H](N)c3ccccc3)[C@H]2SC1 [cephalexin]	–	no effect (1 isolate)
O=C(O)c1cn(C2CC2)c2cc(N3CCNCC3)c(F)cc2c1=O [ciprofloxacin]	Some strains are sensitive	no effect (5 isolates); also recorded: partially sensitive (1 isolate)

same assay, conditions: 2 μg/ml

Compound	observed antibiotic and antifungal sensitivities (outcome, number of isolates)
NCC[C@H](O)C(=O)N[C@@H]1C[C@H](N)[C@@H](O[C@H]2O[C@H](CN)[C@@H](O)[C@H](O)[C@H]2O)[C@H](O)[C@H]1O[C@H]1O[C@H](CO)[C@@H](O)[C@H](N)[C@H]1O [amikacin]	no effect (1 isolate)

same assay, conditions: 20 μg/ml

Compound	observed antibiotic and antifungal sensitivities (outcome, number of isolates)
Nc1ccc(O)c(C(=O)O)c1 [5-aminosalicylic acid]	no effect (4 isolates)

same assay, conditions: concentration not printed

Compound	antibiotic sensitivity of HBB strains/isolates in culture
CCN(CC)CCCC(C)Nc1ccnc2cc(Cl)ccc12 (centres unmarked) [chloroquin]	synergistic effect with a few isolates

system: human blood bacterium (HBB); type: cell-based; settings: not given; remark: another data set of the same source

Compound	effect on HBB growth in culture	optimum concentration for stimulation of HBB growth [µg/mL]	effect on reduction of cell wall-defective forms
OCCS [2-mercaptoethanol]	no significant effect	–	–
CC(=O)N[C@@H](CS)C(=O)O [N-acetyl cysteine]	Little or no stimulation or inhibition; also recorded: no significant effect	–	–
NC12CC3CC(CC(C3)C1)C2 [amantadine, reference compound]	Little or no stimulation or inhibition	–	–
N.N.O=S(=O)(O)O [ammonium sulfate]	Little or no stimulation or inhibition; also recorded: no effect	–	–
[N-]=[N+]=[N-] [azide, reference compound]	little effect on growth	–	–
CCO [ethanol]	Some stimulation of growth	–	–
OO [hydrogen peroxide]	might also be stimulated	–	–
[Fe] [iron]	stimulated	–	–
CC(C)CCO [isoamyl alcohol]	Some stimulation of growth	–	–
[Mn+2] [manganese]	stimulated	1	–
CO [methanol]	minimal or no stimulation of growth	–	–
CSCC[C@H](N)C(=O)O [methionine]	appears to do so less consistently	–	–
CN(C)c1ccc2nc3ccc(=[N+](C)C)cc-3sc2c1 [methylene blue]	Little or no stimulation or inhibition	–	–
C1COCCN1 [morpholine]	slight stimulation	–	–
C[C@@H](O[C@H]1[C@H](O)[C@@H](CO)OC(O)[C@@H]1N)C(=O)O (some centres unmarked) [muramic acid]	–	–	no effect
CCCCO [n-butanol]	Some stimulation of growth	–	–
NCCCNCCCCNCCCN [spermine]	Little or no stimulation or inhibition	–	–
(oxidized) arachidonate	might also be stimulated	–	–
mercury	possibly; also recorded: stimulated	–	–
titanium ethoxide	slight stimulation	–	–

same assay, conditions: 2 μg/ml

Compound	effect on HBB growth in culture
C[N+](C)(C)C[C@H](O)CC(=O)[O-] [L-carnitine]	Little or no stimulation or inhibition

same assay, conditions: 3 μg/ml

Compound	effect on HBB growth in culture
NCCOP(=O)(O)O [phosphorylethanolamine]	Little or no stimulation or inhibition

same assay, conditions: 4 μg/ml

Compound	effect on HBB growth in culture
O=C(O)c1cc(=O)[nH]c(=O)[nH]1 [orotic acid]	Little or no stimulation or inhibition

same assay, conditions: 10 μg/ml

Compound	effect on HBB growth in culture
OCCS [2-mercaptoethanol]	Little or no stimulation or inhibition
O[C@@H](CS)[C@@H](O)CS [dithiotheitol]	Little or no stimulation or inhibition

same assay, conditions: 14 μg/ml

Compound	effect on HBB growth in culture
O=BOB(O)OB(O)OB=O [borax]	Little or no stimulation or inhibition
O=c1ccc2[n+]([O-])c3ccc(O)cc3oc-2c1 [resazurin]	Little or no stimulation or inhibition
CCN(CC)CN(CC)CC [tetraethylmethylenediamine]	slight stimulation

same assay, conditions: 20 μg/ml

Compound	effect on HBB growth in culture
N[C@@H](CS)C(=O)O [cysteine]	Little or no stimulation or inhibition
NCCS(=O)(=O)O [taurine]	Little or no stimulation or inhibition

same assay, conditions: 20 μg/ml; listed as Cysteine

Compound	effect on HBB growth in culture
N[C@@H](CS)C(=O)O [cysteine]	appears to inhibit growth in some isolates

same assay, conditions: 1/14 saturated

Compound	effect on HBB growth in culture
O=C(c1ccccc1)c1ccccc1 [benzophenone]	slight stimulation
c1ccc(Nc2ccccc2)cc1 [diphenylamine]	slight stimulation
dichlorophenylenediamine	Little or no stimulation or inhibition

same assay, conditions: added to ½ strength medium O or RPMI

Compound	effect on HBB growth in culture
COC(C)=O [methyl acetate]	minimal or no stimulation of growth
COP(=O)(OC)OC [trimethyl phosphate]	minimal or no stimulation of growth
CN(C)C [trimethylamine]	minimal or no stimulation of growth

same assay, conditions: addition of cell wall precursors

Compound	effect on reduction of cell wall-defective forms
CC(=O)N[C@H]1C(O)O[C@H](CO)[C@@H](O)[C@@H]1O (some centres unmarked) [N-acetylglucosamine]	no effect
CC(=O)N[C@H]1C(O)O[C@H](CO)[C@@H](O[C@@H]2O[C@H](CO)[C@H](O)[C@H](O)[C@H]2O)[C@@H]1O (some centres unmarked) [N-acetyllactoasamine]	no effect
CC(=O)N[C@H]1C(O)O[C@H](CO)[C@@H](O)[C@@H]1O[C@H](C)C(=O)O (some centres unmarked) [N-acetylmuramic acid]	no effect
N[C@H](CCC[C@H](N)C(=O)O)C(=O)O [diaminopimelic acid]	no effect

same assay, conditions: concentration not printed

Compound	effect on HBB growth in culture
CC(=O)N[C@H]1C(O)O[C@H](CO)[C@@H](O[C@@H]2O[C@H](CO)[C@H](O)[C@H](O)[C@H]2O)[C@@H]1O (some centres unmarked) [N-acetyllactoasamine]	some stimulation of culture growth
[Cr] [chromium]	no inhibition of bacterial growth
[Cu] [copper]	stimulated
N[C@@H](CS)C(=O)O [cysteine]	suppresses growth of some strains; also recorded: stimulates other strains
O[C@@H](CS)[C@@H](O)CS [dithiotheitol]	no significant effect
O=C(CO)[C@@H](O)[C@H](O)[C@H](O)CO [fructose]	support growth
OC[C@H]1O[C@@H](O[C@H]2[C@H](O)[C@@H](O)C(O)O[C@@H]2CO)[C@H](O)[C@@H](O)[C@H]1O (some centres unmarked) [lactose]	support growth
[Mg+2] [magnesium]	little effect on the growth
OC[C@H]1O[C@H](OCC2O[C@@H](O)[C@H](O)[C@@H](O)[C@@H]2O)[C@H](O)[C@@H](O)[C@H]1O (some centres unmarked) [meilibose]	support growth
CN(Cc1cnc2nc(N)nc(N)c2n1)c1ccc(C(=O)N[C@@H](CCC(=O)O)C(=O)O)cc1 [methotrexate, reference compound]	no inhibition
O=C(O)c1ccccn1 [picolinic acid]	Little or no stimulation or inhibition
[I-].[K+] [potassium iodide]	Little or no stimulation or inhibition
OC[C@H]1O[C@H](OC[C@H]2O[C@H](O[C@]3(CO)O[C@H](CO)[C@@H](O)[C@@H]3O)[C@H](O)[C@@H](O)[C@@H]2O)[C@H](O)[C@@H](O)[C@H]1O [raffinose]	support growth
[Ag] [silver]	stimulated
OC[C@H]1O[C@@](CO)(O[C@H]2O[C@H](CO)[C@@H](O)[C@H](O)[C@H]2O)[C@@H](O)[C@@H]1O [sucrose]	support growth
NCCS(=O)(=O)O [taurine]	no effect on cultures
[Sn] [tin]	stimulated
[Zn] [zinc]	suppresses the growth; also recorded: inhibited
chromium picolinate	Little or no stimulation or inhibition
dextran	support growth
silver proteinate	Little or no stimulation or inhibition

same assay, conditions: ⅕ saturated

Compound	effect on HBB growth in culture
COC1=C(OC)C(=O)C(C/C=C(\C)CC/C=C(\C)CC/C=C(\C)CC/C=C(\C)CC/C=C(\C)CC/C=C(\C)CC/C=C(\C)CC/C=C(\C)CC/C=C(\C)CCC=C(C)C)=C(C)C1=O [ubiquinone (Q10)]	slight stimulation
